From the supplement of paper PMC10307832

Columns and labels:
Test in all cases: relative viability (nuclei count vs DMSO), 5 days (fraction); higher = more cells survive
201T = test system: 201T
Method in brief: (§1)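 Cells from lung cancer lines were seeded into 1536-well plates and, one day later, dosed by pin tool. Treatments were either a single drug or a fixed dose of an anchor drug with five library-drug doses (not always all listed) in √10 steps. After 5 days, nuclei were stained in a one-step fixation (final 0.05% Triton X-100, 1% formaldehyde, 1 ug/ml Hoechst) and counted on 4× images, and relative viability is the treated-to-vehicle nuclei ratio, as the median of duplicate plates.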

ABC-1 = test system: ABC-1
Method in brief: as §1

COR-L23 = test system: COR-L23
Method in brief: as §1

EKVX = test system: EKVX
Method in brief: as §1

EPLC-272H = test system: EPLC-272H
Method in brief: as §1

HCC-44 = test system: HCC-44
Method in brief: as §1

LOU-NH91 = test system: LOU-NH91
Method in brief: as §1

NCI-H1650 = test system: NCI-H1650
Method in brief: as §1

NCI-H1734 = test system: NCI-H1734
Method in brief: as §1

NCI-H1793 = test system: NCI-H1793
Method in brief: as §1

NCI-H1993 = test system: NCI-H1993
Method in brief: as §1

NCI-H2023 = test system: NCI-H2023
Method in brief: as §1

**Q.** Which relative viability (201T; first compound 0.04 µM) does the source give for COc1cc(N2CCC(C(N)=O)CC2)ccc1Nc1nc(N)c(Cl)c(Nc2ccccc2S(=O)(=O)C(C)C)n1 [HG-5-88-01] + O=C(CCCCCCC(=O)Nc1ccccc1)NO [Vorinostat] (partner 1 µM) here?
**A.** 0.984

**Q.** And the relative viability (201T; first compound 0.1265 µM)?
**A.** 0.94

**Q.** What about the relative viability (201T; first compound 1.265 µM) of the same compound?
**A.** 0.883

**Q.** And the relative viability (201T; first compound 4 µM)?
**A.** 1.11

**Q.** And the relative viability (ABC-1; first compound 0.04 µM)?
**A.** 1.07

**Q.** What about the relative viability (ABC-1; first compound 0.1265 µM) of the same compound?
**A.** 1.48

**Q.** And the relative viability (ABC-1; first compound 0.4 µM)?
**A.** 1.04

**Q.** What about the relative viability (ABC-1; first compound 1.265 µM) of the same compound?
**A.** 1.04

**Q.** And the relative viability (ABC-1; first compound 4 µM)?
**A.** 0.715

**Q.** What about the relative viability (COR-L23; first compound 0.04 µM) of the same compound?
**A.** 0.496

**Q.** And the relative viability (COR-L23; first compound 0.1265 µM)?
**A.** 0.381

**Q.** What about the relative viability (COR-L23; first compound 0.4 µM) of the same compound?
**A.** 0.355

**Q.** What about the relative viability (COR-L23; first compound 1.265 µM) of the same compound?
**A.** 0.364

**Q.** What about the relative viability (COR-L23; first compound 4 µM) of the same compound?
**A.** 0.227

**Q.** And the relative viability (EKVX; first compound 0.04 µM)?
**A.** 0.789

**Q.** And the relative viability (EKVX; first compound 0.1265 µM)?
**A.** 0.775

**Q.** What about the relative viability (EKVX; first compound 0.4 µM) of the same compound?
**A.** 0.712

**Q.** And the relative viability (EKVX; first compound 4 µM)?
**A.** 0.63

**Q.** And the relative viability (EPLC-272H; first compound 0.04 µM)?
**A.** 0.497

**Q.** And the relative viability (EPLC-272H; first compound 0.1265 µM)?
**A.** 0.606

**Q.** And the relative viability (EPLC-272H; first compound 0.4 µM)?
**A.** 0.6

**Q.** And the relative viability (EPLC-272H; first compound 1.265 µM)?
**A.** 0.503

**Q.** And the relative viability (EPLC-272H; first compound 4 µM)?
**A.** 0.116

**Q.** And the relative viability (HCC-44; first compound 0.04 µM)?
**A.** 1.07

**Q.** What about the relative viability (HCC-44; first compound 0.1265 µM) of the same compound?
**A.** 1.14

**Q.** And the relative viability (HCC-44; first compound 0.4 µM)?
**A.** 1.05

**Q.** And the relative viability (HCC-44; first compound 1.265 µM)?
**A.** 1.08

**Q.** What about the relative viability (HCC-44; first compound 4 µM) of the same compound?
**A.** 1.14

**Q.** And the relative viability (LOU-NH91; first compound 0.04 µM)?
**A.** 0.869

**Q.** And the relative viability (LOU-NH91; first compound 0.1265 µM)?
**A.** 0.823

**Q.** What about the relative viability (LOU-NH91; first compound 0.4 µM) of the same compound?
**A.** 0.723

**Q.** And the relative viability (LOU-NH91; first compound 1.265 µM)?
**A.** 0.508

**Q.** What about the relative viability (LOU-NH91; first compound 4 µM) of the same compound?
**A.** 0.469

**Q.** What about the relative viability (NCI-H1650; first compound 0.04 µM) of the same compound?
**A.** 0.577

**Q.** What about the relative viability (NCI-H1650; first compound 0.1265 µM) of the same compound?
**A.** 0.654

**Q.** What about the relative viability (NCI-H1650; first compound 0.4 µM) of the same compound?
**A.** 0.541

**Q.** And the relative viability (NCI-H1650; first compound 1.265 µM)?
**A.** 0.526

**Q.** What about the relative viability (NCI-H1650; first compound 4 µM) of the same compound?
**A.** 0.46

**Q.** What about the relative viability (NCI-H1734; first compound 0.04 µM) of the same compound?
**A.** 0.969

**Q.** What about the relative viability (NCI-H1734; first compound 0.1265 µM) of the same compound?
**A.** 0.871

**Q.** And the relative viability (NCI-H1734; first compound 0.4 µM)?
**A.** 0.833

**Q.** What about the relative viability (NCI-H1734; first compound 1.265 µM) of the same compound?
**A.** 0.773

**Q.** What about the relative viability (NCI-H1734; first compound 4 µM) of the same compound?
**A.** 0.795

**Q.** And the relative viability (NCI-H1793; first compound 0.04 µM)?
**A.** 0.648

**Q.** What about the relative viability (NCI-H1793; first compound 0.1265 µM) of the same compound?
**A.** 0.95

**Q.** And the relative viability (NCI-H1793; first compound 0.4 µM)?
**A.** 0.725

**Q.** What about the relative viability (NCI-H1793; first compound 1.265 µM) of the same compound?
**A.** 0.575

**Q.** What about the relative viability (NCI-H1793; first compound 4 µM) of the same compound?
**A.** 0.53

**Q.** And the relative viability (NCI-H1993; first compound 0.04 µM)?
**A.** 0.669

**Q.** What about the relative viability (NCI-H1993; first compound 0.1265 µM) of the same compound?
**A.** 0.976

**Q.** What about the relative viability (NCI-H1993; first compound 0.4 µM) of the same compound?
**A.** 0.721

**Q.** What about the relative viability (NCI-H1993; first compound 4 µM) of the same compound?
**A.** 0.644

**Q.** What about the relative viability (NCI-H2023; first compound 0.04 µM) of the same compound?
**A.** 0.764

**Q.** What about the relative viability (NCI-H2023; first compound 0.1265 µM) of the same compound?
**A.** 0.777

**Q.** What about the relative viability (NCI-H2023; first compound 0.4 µM) of the same compound?
**A.** 0.361
